Results: ChEMBL document CHEMBL3991601, “The target landscape of clinical kinase drugs” (Science, 2017)
Calls of active or inactive are those of the source.

Columns and labels:
[1] = target: T1, cGMP-dependent protein kinase 1 (Homo sapiens, UniProt Q13976)
T1 sequence (Q13976 whole entry): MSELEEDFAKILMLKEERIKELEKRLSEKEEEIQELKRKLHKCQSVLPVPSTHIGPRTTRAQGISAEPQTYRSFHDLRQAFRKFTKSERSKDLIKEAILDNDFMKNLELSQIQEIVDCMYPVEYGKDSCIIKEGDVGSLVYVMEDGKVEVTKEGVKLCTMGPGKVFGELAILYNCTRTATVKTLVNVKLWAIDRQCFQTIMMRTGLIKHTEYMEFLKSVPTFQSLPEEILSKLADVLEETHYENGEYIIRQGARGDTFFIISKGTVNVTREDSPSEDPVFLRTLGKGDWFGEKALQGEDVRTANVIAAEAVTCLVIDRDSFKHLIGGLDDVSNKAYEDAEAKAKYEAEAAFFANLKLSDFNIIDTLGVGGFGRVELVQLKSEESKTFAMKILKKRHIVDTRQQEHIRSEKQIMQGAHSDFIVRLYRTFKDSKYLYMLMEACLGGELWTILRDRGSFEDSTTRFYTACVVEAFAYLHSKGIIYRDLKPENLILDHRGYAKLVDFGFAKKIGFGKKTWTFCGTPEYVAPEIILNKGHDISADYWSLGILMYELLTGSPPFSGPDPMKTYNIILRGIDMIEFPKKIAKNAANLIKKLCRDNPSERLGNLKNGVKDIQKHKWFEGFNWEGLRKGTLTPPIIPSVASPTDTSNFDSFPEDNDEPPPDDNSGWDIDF

[2] = target: T2, DNA replication licensing factor MCM4 (Homo sapiens, UniProt P33991)
T2 sequence (P33991 whole entry): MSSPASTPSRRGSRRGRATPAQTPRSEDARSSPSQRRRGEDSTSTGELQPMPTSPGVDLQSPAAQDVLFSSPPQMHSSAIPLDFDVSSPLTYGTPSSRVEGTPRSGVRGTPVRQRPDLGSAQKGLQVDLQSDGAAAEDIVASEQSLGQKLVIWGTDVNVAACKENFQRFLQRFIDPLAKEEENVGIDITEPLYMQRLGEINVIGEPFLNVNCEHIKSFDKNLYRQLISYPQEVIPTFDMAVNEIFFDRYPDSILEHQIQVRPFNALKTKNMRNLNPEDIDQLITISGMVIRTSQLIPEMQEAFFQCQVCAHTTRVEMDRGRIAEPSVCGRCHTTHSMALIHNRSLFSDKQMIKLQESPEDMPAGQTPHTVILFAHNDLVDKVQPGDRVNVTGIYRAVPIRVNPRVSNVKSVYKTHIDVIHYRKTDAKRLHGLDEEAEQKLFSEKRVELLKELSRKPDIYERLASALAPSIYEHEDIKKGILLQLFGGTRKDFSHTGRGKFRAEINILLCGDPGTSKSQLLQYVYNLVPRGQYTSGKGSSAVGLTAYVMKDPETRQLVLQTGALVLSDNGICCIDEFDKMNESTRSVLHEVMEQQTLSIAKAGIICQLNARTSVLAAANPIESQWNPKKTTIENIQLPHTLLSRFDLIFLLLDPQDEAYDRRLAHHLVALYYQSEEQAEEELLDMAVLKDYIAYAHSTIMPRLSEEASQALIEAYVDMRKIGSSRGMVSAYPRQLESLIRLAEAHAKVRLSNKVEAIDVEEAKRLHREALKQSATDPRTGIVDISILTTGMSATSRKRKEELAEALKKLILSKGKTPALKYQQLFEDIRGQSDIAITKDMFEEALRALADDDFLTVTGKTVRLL

[3] = target: T3, Acyl-CoA dehydrogenase family member 10 (Homo sapiens, UniProt Q6JQN1)
T3 sequence (Q6JQN1 whole entry): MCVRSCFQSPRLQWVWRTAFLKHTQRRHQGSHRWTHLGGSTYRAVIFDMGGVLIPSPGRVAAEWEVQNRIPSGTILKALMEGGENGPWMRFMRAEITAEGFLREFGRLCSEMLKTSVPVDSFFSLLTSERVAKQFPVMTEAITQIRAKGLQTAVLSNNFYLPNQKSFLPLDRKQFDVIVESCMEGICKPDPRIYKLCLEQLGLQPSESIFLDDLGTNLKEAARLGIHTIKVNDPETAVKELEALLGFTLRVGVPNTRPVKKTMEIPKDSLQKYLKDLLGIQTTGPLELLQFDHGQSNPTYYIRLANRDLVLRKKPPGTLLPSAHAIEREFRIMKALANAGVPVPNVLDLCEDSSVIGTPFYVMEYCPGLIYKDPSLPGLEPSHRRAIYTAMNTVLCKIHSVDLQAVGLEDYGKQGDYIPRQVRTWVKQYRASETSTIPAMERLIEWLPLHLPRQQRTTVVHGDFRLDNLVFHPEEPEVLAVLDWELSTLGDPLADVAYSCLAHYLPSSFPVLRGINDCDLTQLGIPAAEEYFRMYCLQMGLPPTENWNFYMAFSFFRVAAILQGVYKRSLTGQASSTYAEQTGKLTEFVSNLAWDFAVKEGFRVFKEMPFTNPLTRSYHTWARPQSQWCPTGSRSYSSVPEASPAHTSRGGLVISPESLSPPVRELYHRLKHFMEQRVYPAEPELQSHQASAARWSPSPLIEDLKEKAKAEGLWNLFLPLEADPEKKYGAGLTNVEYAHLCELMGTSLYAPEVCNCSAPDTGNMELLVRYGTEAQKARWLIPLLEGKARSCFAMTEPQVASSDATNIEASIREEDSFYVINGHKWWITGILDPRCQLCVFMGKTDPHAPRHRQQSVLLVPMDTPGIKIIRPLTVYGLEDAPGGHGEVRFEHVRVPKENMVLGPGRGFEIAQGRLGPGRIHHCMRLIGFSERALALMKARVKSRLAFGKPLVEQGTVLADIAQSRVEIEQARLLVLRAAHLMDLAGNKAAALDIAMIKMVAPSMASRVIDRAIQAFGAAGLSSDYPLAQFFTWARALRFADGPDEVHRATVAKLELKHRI

[4] = target: Calcium/calmodulin-dependent protein kinase type II subunit delta (Homo sapiens, UniProt Q13557)
[5] = target: Mitogen-activated protein kinase 7 (Homo sapiens, UniProt Q13164)
[6] = target: Ribosomal protein S6 kinase alpha-3 (Homo sapiens, UniProt P51812)
[7] = target: DnaJ homolog subfamily A member 1 (Homo sapiens, UniProt P31689)
Focal adhesion kinase 1 = Focal adhesion kinase 1 (Homo sapiens, UniProt Q05397)
Also: in the data inactive means no Kd found up to 30 µM.

Calcium/calmodulin-dependent protein kinase type II subunit delta, sequence (Q13557 whole entry): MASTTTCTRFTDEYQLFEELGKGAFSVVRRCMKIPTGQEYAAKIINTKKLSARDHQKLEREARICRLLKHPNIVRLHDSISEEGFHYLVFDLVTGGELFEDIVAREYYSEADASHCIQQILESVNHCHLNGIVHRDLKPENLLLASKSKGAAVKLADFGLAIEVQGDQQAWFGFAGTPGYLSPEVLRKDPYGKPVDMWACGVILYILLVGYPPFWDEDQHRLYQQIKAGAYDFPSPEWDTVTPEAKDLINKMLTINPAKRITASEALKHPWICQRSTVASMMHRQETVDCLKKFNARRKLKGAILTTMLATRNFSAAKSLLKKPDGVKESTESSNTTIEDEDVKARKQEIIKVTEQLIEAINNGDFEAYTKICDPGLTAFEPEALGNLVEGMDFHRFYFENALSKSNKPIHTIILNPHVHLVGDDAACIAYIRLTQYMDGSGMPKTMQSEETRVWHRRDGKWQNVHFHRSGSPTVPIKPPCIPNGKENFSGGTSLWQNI
Focal adhesion kinase 1, sequence (Q05397 whole entry): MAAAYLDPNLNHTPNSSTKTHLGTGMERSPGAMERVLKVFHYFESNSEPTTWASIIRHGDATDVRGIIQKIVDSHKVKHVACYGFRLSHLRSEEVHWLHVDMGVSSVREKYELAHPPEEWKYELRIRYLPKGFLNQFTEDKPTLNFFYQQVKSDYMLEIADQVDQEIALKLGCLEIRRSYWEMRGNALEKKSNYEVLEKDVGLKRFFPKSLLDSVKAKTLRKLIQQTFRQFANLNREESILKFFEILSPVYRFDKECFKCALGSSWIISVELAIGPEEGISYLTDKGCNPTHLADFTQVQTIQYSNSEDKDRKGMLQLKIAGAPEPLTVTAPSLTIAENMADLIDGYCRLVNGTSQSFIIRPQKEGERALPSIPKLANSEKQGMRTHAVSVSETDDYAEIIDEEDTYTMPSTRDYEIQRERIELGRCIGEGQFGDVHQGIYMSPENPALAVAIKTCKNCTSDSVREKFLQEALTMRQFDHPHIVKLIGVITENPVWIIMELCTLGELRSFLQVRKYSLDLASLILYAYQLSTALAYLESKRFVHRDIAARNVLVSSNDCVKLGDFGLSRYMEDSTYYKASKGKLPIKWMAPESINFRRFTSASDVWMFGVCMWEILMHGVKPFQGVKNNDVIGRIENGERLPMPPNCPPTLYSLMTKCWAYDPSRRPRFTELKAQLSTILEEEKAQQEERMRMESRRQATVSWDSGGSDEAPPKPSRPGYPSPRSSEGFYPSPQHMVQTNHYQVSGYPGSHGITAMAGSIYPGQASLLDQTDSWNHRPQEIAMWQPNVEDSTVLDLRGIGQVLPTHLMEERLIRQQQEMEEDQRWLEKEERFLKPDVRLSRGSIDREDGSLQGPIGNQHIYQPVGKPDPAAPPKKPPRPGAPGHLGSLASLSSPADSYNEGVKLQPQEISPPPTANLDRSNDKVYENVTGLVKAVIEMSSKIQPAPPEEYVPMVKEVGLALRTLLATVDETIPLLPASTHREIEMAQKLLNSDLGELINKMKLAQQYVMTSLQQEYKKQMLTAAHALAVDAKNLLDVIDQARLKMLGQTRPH
Ribosomal protein S6 kinase alpha-3, sequence (P51812 whole entry): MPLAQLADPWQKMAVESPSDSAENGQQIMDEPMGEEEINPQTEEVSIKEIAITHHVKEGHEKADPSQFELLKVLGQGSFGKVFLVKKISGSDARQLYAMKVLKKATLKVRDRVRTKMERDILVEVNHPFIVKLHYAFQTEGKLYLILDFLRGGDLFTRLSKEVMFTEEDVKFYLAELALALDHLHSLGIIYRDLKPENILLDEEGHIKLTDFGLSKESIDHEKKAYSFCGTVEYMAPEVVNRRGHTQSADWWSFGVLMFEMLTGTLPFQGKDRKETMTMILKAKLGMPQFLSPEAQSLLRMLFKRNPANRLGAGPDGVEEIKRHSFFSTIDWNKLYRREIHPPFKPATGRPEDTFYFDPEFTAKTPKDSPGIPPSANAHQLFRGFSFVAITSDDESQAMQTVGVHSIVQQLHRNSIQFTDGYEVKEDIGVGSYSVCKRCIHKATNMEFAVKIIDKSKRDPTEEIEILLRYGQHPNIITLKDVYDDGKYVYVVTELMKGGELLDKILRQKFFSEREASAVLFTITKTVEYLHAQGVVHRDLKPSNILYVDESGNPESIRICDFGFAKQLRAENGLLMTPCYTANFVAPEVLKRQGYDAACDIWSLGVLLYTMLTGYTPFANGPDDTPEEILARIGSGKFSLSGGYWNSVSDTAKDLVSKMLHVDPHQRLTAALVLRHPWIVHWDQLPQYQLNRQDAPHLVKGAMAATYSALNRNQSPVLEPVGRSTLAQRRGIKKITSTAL
Mitogen-activated protein kinase 7, sequence (Q13164 whole entry): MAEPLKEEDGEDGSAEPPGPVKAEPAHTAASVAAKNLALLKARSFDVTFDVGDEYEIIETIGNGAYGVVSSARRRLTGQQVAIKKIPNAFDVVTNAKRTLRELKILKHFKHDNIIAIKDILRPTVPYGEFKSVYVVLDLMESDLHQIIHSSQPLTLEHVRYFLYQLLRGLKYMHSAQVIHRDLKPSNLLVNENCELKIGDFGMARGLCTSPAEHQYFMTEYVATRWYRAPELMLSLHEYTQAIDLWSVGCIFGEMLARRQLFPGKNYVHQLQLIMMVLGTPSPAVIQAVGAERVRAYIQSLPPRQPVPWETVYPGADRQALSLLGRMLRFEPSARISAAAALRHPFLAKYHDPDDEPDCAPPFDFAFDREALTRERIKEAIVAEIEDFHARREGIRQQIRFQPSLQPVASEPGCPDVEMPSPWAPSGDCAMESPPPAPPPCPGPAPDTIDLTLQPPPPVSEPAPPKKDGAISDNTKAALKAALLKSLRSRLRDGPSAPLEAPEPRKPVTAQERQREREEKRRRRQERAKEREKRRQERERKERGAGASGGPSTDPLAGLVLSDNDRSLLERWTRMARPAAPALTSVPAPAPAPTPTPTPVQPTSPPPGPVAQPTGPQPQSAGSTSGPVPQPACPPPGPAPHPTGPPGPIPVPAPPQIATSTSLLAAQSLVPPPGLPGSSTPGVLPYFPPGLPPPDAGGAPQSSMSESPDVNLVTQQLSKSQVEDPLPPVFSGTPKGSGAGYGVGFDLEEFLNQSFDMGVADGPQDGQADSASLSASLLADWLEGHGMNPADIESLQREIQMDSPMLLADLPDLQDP
DnaJ homolog subfamily A member 1, sequence (P31689 whole entry): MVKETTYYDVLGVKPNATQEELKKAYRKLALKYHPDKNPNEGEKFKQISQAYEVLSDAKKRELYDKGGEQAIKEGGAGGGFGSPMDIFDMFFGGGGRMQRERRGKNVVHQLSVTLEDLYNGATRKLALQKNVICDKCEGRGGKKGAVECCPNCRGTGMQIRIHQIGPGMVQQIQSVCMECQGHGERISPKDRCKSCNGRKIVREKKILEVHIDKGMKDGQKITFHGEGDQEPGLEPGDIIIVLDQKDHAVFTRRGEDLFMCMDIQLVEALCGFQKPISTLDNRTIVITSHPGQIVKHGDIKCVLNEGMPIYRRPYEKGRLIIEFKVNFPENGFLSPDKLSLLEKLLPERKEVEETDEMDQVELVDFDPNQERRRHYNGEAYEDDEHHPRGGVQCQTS

Kd [1]	Kd [2]	Kd [3]	Kd [4]	Kd [5]	Kd [6]	Kd [7]	Kd (Focal adhesion kinase 1)	SMILES
> 30 µM (inactive)	> 30 µM (inactive)	> 30 µM (inactive)	0.312 µM (active)	> 30 µM (inactive)	> 30 µM (inactive)	> 30 µM (inactive)	> 30 µM (inactive)	CCS(=O)(=O)N1CC(CC#N)(n2cc(-c3ncnc4[nH]ccc34)cn2)C1 [BARICITINIB]
> 30 µM (inactive)	> 30 µM (inactive)	> 30 µM (inactive)	> 30 µM (inactive)	> 30 µM (inactive)	> 30 µM (inactive)	> 30 µM (inactive)	> 30 µM (inactive)	CN1N=C(N)c2cn([C@@H]3O[C@H](COP(=O)(O)O)[C@@H](O)[C@H]3O)c3ncnc1c23 [TRICIRIBINE PHOSPHATE]
> 30 µM (inactive)	> 30 µM (inactive)	> 30 µM (inactive)	> 30 µM (inactive)	> 30 µM (inactive)	> 30 µM (inactive)	> 30 µM (inactive)	> 30 µM (inactive)	CNC(=O)c1cc(Oc2ccc(NC(=O)Nc3ccc(Cl)c(C(F)(F)F)c3)c(F)c2)ccn1 [REGORAFENIB]
> 30 µM (inactive)	> 30 µM (inactive)	> 30 µM (inactive)	> 30 µM (inactive)	> 30 µM (inactive)	> 30 µM (inactive)	> 30 µM (inactive)	> 30 µM (inactive)	O=C(Nc1ccc(-c2ccnc(Nc3ccc(N4CCOCC4)cc3)n2)cc1)C1CCCN1 (stereo not drawn) [XL-019]
> 30 µM (inactive)	> 30 µM (inactive)	> 30 µM (inactive)	> 30 µM (inactive)	> 30 µM (inactive)	> 30 µM (inactive)	> 30 µM (inactive)	> 30 µM (inactive)	CNS(=O)(=O)Nc1nccc(Cc2c(C)c3ccc(Oc4ncccn4)cc3oc2=O)c1F [AVUTOMETINIB]
> 30 µM (inactive)	> 30 µM (inactive)	> 30 µM (inactive)	> 30 µM (inactive)	> 30 µM (inactive)	> 30 µM (inactive)	> 30 µM (inactive)	> 30 µM (inactive)	CCCS(=O)(=O)Nc1ccc(F)c(C(=O)c2c[nH]c3ncc(-c4ccc(Cl)cc4)cc23)c1F [VEMURAFENIB]
> 30 µM (inactive)	> 30 µM (inactive)	> 30 µM (inactive)	> 30 µM (inactive)	> 30 µM (inactive)	> 30 µM (inactive)	> 30 µM (inactive)	> 30 µM (inactive)	COc1cc2nccc(Oc3ccc(NC(=O)NC4CC4)c(Cl)c3)c2cc1C(N)=O [LENVATINIB]
> 30 µM (inactive)	> 30 µM (inactive)	> 30 µM (inactive)	> 30 µM (inactive)	> 30 µM (inactive)	> 30 µM (inactive)	> 30 µM (inactive)	> 30 µM (inactive)	Cc1cc2c(F)c(Oc3ncnn4cc(OC[C@@H](C)OC(=O)[C@H](C)N)c(C)c34)ccc2[nH]1 [BRIVANIB ALANINATE]
> 30 µM (inactive)	> 30 µM (inactive)	> 30 µM (inactive)	> 30 µM (inactive)	> 30 µM (inactive)	> 30 µM (inactive)	> 30 µM (inactive)	> 30 µM (inactive)	Cc1ccc(S(=O)(=O)Nc2nc3ccccc3nc2Nc2ccc3nsnc3c2)cc1
> 30 µM (inactive)	> 30 µM (inactive)	> 30 µM (inactive)	> 30 µM (inactive)	> 30 µM (inactive)	> 30 µM (inactive)	> 30 µM (inactive)	> 30 µM (inactive)	Cc1c(F)cc(C(=O)NC2CC2)cc1-c1ccc(C(=O)NCC(C)(C)C)cn1 [LOSMAPIMOD]
> 30 µM (inactive)	> 30 µM (inactive)	> 30 µM (inactive)	> 30 µM (inactive)	> 30 µM (inactive)	> 30 µM (inactive)	> 30 µM (inactive)	> 30 µM (inactive)	CCn1c(=O)c(-c2cc[nH]n2)cc2c(C)nc(N)nc21 [VOXTALISIB]
> 30 µM (inactive)	> 30 µM (inactive)	> 30 µM (inactive)	> 30 µM (inactive)	> 30 µM (inactive)	> 30 µM (inactive)	> 30 µM (inactive)	> 30 µM (inactive)	CC(=O)Nc1cccc(-n2c(=O)n(C3CC3)c(=O)c3c(Nc4ccc(I)cc4F)n(C)c(=O)c(C)c32)c1 [TRAMETINIB]
> 30 µM (inactive)	> 30 µM (inactive)	> 30 µM (inactive)	> 30 µM (inactive)	> 30 µM (inactive)	> 30 µM (inactive)	> 30 µM (inactive)	> 30 µM (inactive)	CN1CCC(CNc2ccc3ncc(-c4cccc(OC(F)(F)F)c4)n3n2)CC1 [SGI-1776]
> 30 µM (inactive)	> 30 µM (inactive)	> 30 µM (inactive)	> 30 µM (inactive)	> 30 µM (inactive)	> 30 µM (inactive)	> 30 µM (inactive)	> 30 µM (inactive)	O=c1sn(-c2cccc3ccccc23)c(=O)n1Cc1ccccc1 [TIDEGLUSIB]

SMILES	Kd [1]	Kd [2]	Kd [3]	Kd [4]	Kd [5]	Kd [6]	Kd [7]	Kd (Focal adhesion kinase 1)
C=CC(=O)N1CCC(Oc2cc3c(Nc4ccc(Cl)c(Cl)c4F)ncnc3cc2OC)CC1 [POZIOTINIB]	> 30 µM (inactive)	> 30 µM (inactive)	> 30 µM (inactive)	> 30 µM (inactive)	> 30 µM (inactive)	> 30 µM (inactive)	> 30 µM (inactive)	> 30 µM (inactive)
CN1CC[C@@H](c2c(O)cc(O)c3c(=O)cc(-c4ccccc4Cl)oc23)[C@@H]1CO	> 30 µM (inactive)	> 30 µM (inactive)	> 30 µM (inactive)	> 30 µM (inactive)	> 30 µM (inactive)	> 30 µM (inactive)	> 30 µM (inactive)	> 30 µM (inactive)
